39 compounds from patent US7163946B2 (Ligand Pharmaceuticals Incorporated, priority 2002, dated 2007) can be followed below.

Molecules are shown by their SMILES. Read-outs that look alike come from different tables or passages of the source.

The test addresses T1, hPR (Homo sapiens, UniProt P06401).
T1 sequence (P06401 1-933): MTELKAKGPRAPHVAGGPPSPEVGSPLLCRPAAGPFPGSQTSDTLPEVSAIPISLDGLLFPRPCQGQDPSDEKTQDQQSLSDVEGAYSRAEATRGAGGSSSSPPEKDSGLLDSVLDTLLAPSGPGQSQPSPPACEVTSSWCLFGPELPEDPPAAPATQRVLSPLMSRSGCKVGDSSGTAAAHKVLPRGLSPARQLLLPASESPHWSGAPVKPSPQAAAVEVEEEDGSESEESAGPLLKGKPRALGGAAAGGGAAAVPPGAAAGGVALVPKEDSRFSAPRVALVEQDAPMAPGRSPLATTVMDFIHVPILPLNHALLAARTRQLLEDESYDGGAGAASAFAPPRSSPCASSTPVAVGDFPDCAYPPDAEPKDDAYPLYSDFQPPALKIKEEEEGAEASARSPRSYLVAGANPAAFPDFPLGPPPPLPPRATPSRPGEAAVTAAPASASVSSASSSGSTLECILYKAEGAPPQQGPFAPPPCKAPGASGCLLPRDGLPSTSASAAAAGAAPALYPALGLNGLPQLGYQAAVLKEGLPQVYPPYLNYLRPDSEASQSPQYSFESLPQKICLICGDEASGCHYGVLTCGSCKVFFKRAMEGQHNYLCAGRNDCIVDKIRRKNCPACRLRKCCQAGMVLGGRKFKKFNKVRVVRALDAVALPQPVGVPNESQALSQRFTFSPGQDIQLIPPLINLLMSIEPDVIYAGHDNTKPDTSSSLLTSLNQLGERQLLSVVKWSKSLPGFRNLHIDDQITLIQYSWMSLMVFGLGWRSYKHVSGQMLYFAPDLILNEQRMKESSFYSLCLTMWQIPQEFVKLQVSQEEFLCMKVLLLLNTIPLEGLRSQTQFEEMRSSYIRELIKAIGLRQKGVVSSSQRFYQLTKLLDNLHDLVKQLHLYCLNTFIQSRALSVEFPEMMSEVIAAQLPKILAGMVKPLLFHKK
The test can be described thus: hPR cotransfection assay in CV-1 cells, agonist mode. In kind it is cell-based. The following applies: Tables 3 and 4, values without footnote.

Setting [1] is: read-out: hPR agonist potencies (EC50 in nM) in the cotransfection assay.
[2] abbreviates: hPR agonist potencies (EC50 in nM) in the cotransfection assay.

Experimental: Antagonist efficacy was determined as a function (%) of maximal inhibition of a reference agonist at EC50 concentration. All the cotransfection experiments were carried out in 96-well plates by automation (Beckman Biomomek automated workstation).

For `COc1ccc2c(c1)O/C(=C\c1ccccc1OC)c1c-2ccc2c1C(C)=CC(C)(C)N2` [Formula II X=8-OMe 2-MeO-Ph, reference compound], the EC50 under setting [1] turned out to be 24 nM.

Regarding `CC1=CC(C)(C)Nc2ccc3c(c21)/C(=C/c1cc(F)ccc1F)Oc1cc(O)ccc1-3` [Formula II X=8-OH 2,5-diF-Ph, reference compound], the EC50 under setting [1] amounted to 10 nM.

In the case of `CC1=CC(C)(C)Nc2ccc3c(c21)/C(=C/c1ccccc1)Oc1cc(F)ccc1-3` [Formula II X=8-F Phenyl, reference compound], under setting [1], the EC50 turned out to be 187 nM.

With `CC1=CC(C)(C)Nc2ccc3c(c21)C(c1ccc(Cl)c(C)c1)Oc1ccc(Cl)cc1-3` (stereo not drawn) [Formula I X=9-Cl 4-Cl-3-Me-Ph, reference compound], the EC50 under setting [1] was 9.4 nM.

For the compound `COc1ccc2c(c1)O/C(=C\c1cccc(F)c1)c1c-2ccc2c1C(C)=CC(C)(C)N2` [Formula II X=8-OMe 3-F-Ph, reference compound], under setting [1], the EC50 came out at 8.6 nM.

As for `CC1=CC(C)(C)Nc2ccc3c(c21)/C(=C/c1cc(F)ccc1C)Oc1ccc(F)cc1-3` [Formula II X=9-F 2-Me-5-F-Ph, reference compound], the EC50 under setting [1] came to 2.1 nM.

For the compound `COc1ccc2c(c1)O/C(=C\c1ccccc1)c1c-2ccc2c1C(C)=CC(C)(C)N2` [Formula II X=8-OMe Phenyl, reference compound], the EC50 under setting [1] amounted to 5.5 nM.

As for `CC1=CC(C)(C)Nc2ccc3c(c21)C(c1ccc(Cl)cc1)Oc1c(F)cc(F)cc1-3` (racemic) [Compound 43, (±)-7,9-difluoro-5-(4-chlorophenyl)-1,2-dihydro-2,2,4-trimethyl-5H-chromeno[3,4-f]quinoline], the EC50 under setting [1] worked out at 5.1 nM.

On to `CCCCC1Oc2c(F)cc(F)cc2-c2ccc3c(c21)C(C)=CC(C)(C)N3` (racemic) [Compound 52, (±)-7,9-difluoro-5-butyl-1,2-dihydro-2,2,4-trimethyl-5H-chromeno[3,4-f]quinoline], for which the EC50 under setting [1] was found to be 15 nM.

Turning to `CC1=CC(C)(C)Nc2ccc3c(c21)C(c1ccc2c(c1)OCO2)Oc1c(F)cc(F)cc1-3` (racemic) [Compound 35, (±)-7,9-difluoro-5-(1,3-benzodioxol-5-yl)-1,2-dihydro-2,2,4-trimethyl-5H-chromeno[3,4-f]quinoline], under setting [1], the EC50 amounted to 3.85 nM.

With `CC1=CC(C)(C)Nc2ccc3c(c21)C(C)Oc1c(F)cc(F)cc1-3` (racemic) [Compound 44, (±)-7,9-difluoro-1,2-dihydro-2,2,4,5-tetramethyl-5H-chromeno[3,4-f]quinoline], the EC50 under setting [2] was determined as 1.4 nM.

As for `CC1=CC(C)(C)Nc2ccc3c(c21)/C(=C/c1cccs1)Oc1ccc(F)cc1-3` [Formula II X=9-F 2-Thienyl, reference compound], the EC50 under setting [1] was found to be 18 nM.

In the case of `CC1=CC(C)(C)Nc2ccc3c(c21)/C(=C/c1cc(F)ccc1F)Oc1ccc(Cl)cc1-3` [Formula II X=9-Cl 2,5-diF-Ph, reference compound], the EC50 under setting [1] was found to be 25 nM.

Regarding `CC1=CC(C)(C)Nc2ccc3c(c21)/C(=C/c1cccc(F)c1C)Oc1c(F)cc(F)cc1-3` [Compound 21, 7,9-difluoro-5(Z)-(2-methyl-3-fluorobenzylidene)-1,2-dihydro-2,2,4-trimethyl-5H-chromeno[3,4-f]quinoline], under setting [1], the EC50 worked out at 8.2 nM.

As for `CC1=CC(C)(C)Nc2ccc3c(c21)/C(=C/c1ccncc1C)Oc1ccc(F)cc1-3` [Formula II X=9-F 3-Me-4-pyridinyl, reference compound], the EC50 under setting [1] was found to be 2 nM.

As for `COc1ccc(F)cc1/C=C1\Oc2ccc(F)cc2-c2ccc3c(c21)C(C)=CC(C)(C)N3` [Formula II X=9-F 2-MeO-5-F-Ph, reference compound], the EC50 under setting [1] was 0.9 nM.

Turning to `CC1=CC(C)(C)Nc2ccc3c(c21)/C(=C/c1cccc(F)c1)Oc1ccc(C)cc1-3` [Formula II X=9-Me 3-F-Ph, reference compound], the EC50 under setting [1] turned out to be 7.95 nM.

As to `CC1=CC(C)(C)Nc2ccc3c(c21)C(c1ccc2c(c1)OCO2)Oc1ccccc1-3` (stereo not drawn) [Formula I X=H Benzodioxol-5-yl, reference compound], the half-maximal effective concentration (EC50) under setting [1] turned out to be 48 nM.

In the case of `CC1=CC(C)(C)Nc2ccc3c(c21)/C(=C/c1cc(F)ccc1C)Oc1ccc(Cl)cc1-3` [Formula II X=9-Cl 2-Me-5-F-Ph, reference compound], the EC50 under setting [1] stood at 2.1 nM.

For the compound `COc1ccc2c(c1)O/C(=C\c1ccccc1C)c1c-2ccc2c1C(C)=CC(C)(C)N2` [Formula II X=8-OMe 2-Me-Ph, reference compound], the EC50 under setting [1] worked out at 3.5 nM.

As to `COc1ccc(F)cc1/C=C1\Oc2ccc(O)cc2-c2ccc3c(c21)C(C)=CC(C)(C)N3` [Formula II X=9-OH 2-MeO-5-F-Ph, reference compound], the EC50 under setting [1] is 11.5 nM.

In the case of `CC1=CC(C)(C)Nc2ccc3c(c21)C(c1cccc(Cl)c1)Oc1ccc(C)cc1-3` (stereo not drawn) [Formula I X=9-Me 3-Cl-Ph, reference compound], under setting [1], the EC50 came to 4.85 nM.

As for `COc1ccccc1/C=C1\Oc2ccc(F)cc2-c2ccc3c(c21)C(C)=CC(C)(C)N3` [Formula II X=9-F 2-MeO-Ph, reference compound], the EC50 under setting [1] is 0.93 nM.

On to `CC1=CC(C)(C)Nc2ccc3c(c21)/C(=C/c1cc(F)ccc1C)Oc1cc(F)c(F)cc1-3` [Formula II X=8,9-diF 2-Me-5-F-Ph, reference compound], for which, under setting [1], the EC50 came to 3.95 nM.

As to `CC1=CC(C)(C)Nc2ccc3c(c21)C(c1cccc(F)c1)Oc1c(F)cc(F)cc1-3` (racemic) [Compound 40, (±)-7,9-difluoro-5-(3-fluorophenyl)-1,2-dihydro-2,2,4-trimethyl-5H-chromeno[3,4-f]quinoline], the EC50 under setting [1] was found to be 6.66 nM.

For `CC1=CC(C)(C)Nc2ccc3c(c21)/C(=C/c1ccccc1C)Oc1ccc(O)cc1-3` [Formula II X=9-OH 2-Me-Ph, reference compound], the EC50 under setting [1] came out at 9.3 nM.

As to `CC1=CC(C)(C)Nc2ccc3c(c21)C(c1ccc(Cl)c(C)c1)Oc1ccc(C)cc1-3` (stereo not drawn) [Formula I X=9-Me 4-Cl-3-Me-Ph, reference compound], a half-maximal response under setting [2] (EC50) required 7.45 nM.

`CC1=CC(C)(C)Nc2ccc3c(c21)/C(=C/c1ccccc1C)Oc1cc(F)ccc1-3` [Formula II X=8-F 2-Me-Ph, reference compound]: under setting [1], the EC50 was 13 nM.

`CC1=CC(C)(C)Nc2ccc3c(c21)C(c1ccc(Br)cc1)Oc1c(F)cc(F)cc1-3` (racemic) [Compound 36, (±)-7,9-difluoro-5-(4-bromophenyl)-1,2-dihydro-2,2,4-trimethyl-5H-chromeno[3,4-f]quinoline]: the EC50 under setting [1] stood at 4.96 nM.

For `CC1=CC(C)(C)Nc2ccc3c(c21)/C(=C/c1cccc(F)c1C)Oc1ccc(F)cc1-3` [Formula II X=9-F 2-Me-3-F-Ph, reference compound], the EC50 under setting [1] was found to be 8.4 nM.

As to `CC1=CC(C)(C)Nc2ccc3c(c21)C(c1cccc(C)c1)Oc1ccccc1-3` (stereo not drawn) [Formula I X=H 3-Me-Ph, reference compound], the EC50 under setting [1] was 145 nM.

As to `CCC1Oc2c(F)cc(F)cc2-c2ccc3c(c21)C(C)=CC(C)(C)N3` (racemic) [Compound 46, (±)-7,9-difluoro-5-ethyl-1,2-dihydro-2,2,4-trimethyl-5H-chromeno[3,4-f]quinoline], the EC50 under setting [1] is 6.93 nM.

As for `COc1ccc2c(c1)-c1ccc3c(c1/C(=C/c1ccccc1C)O2)C(C)=CC(C)(C)N3` [Formula II X=9-OMe 2-Me-Ph, reference compound], the EC50 under setting [1] amounted to 67.5 nM.

Take `COc1ccc2c(c1)O/C(=C\c1ccccc1F)c1c-2ccc2c1C(C)=CC(C)(C)N2` [Formula II X=8-OMe 2-F-Ph, reference compound]: the EC50 under setting [1] was determined as 45 nM.

Take `CC1=CC(C)(C)Nc2ccc3c(c21)/C(=C/c1cccc(F)c1)Oc1ccc(O)cc1-3` [Formula II X=9-OH 3-F-Ph, reference compound]: the EC50 under setting [1] amounted to 5.75 nM.

For `CC1=CC(C)(C)Nc2ccc3c(c21)/C(=C/c1cccc(F)c1)Oc1ccc(Cl)cc1-3` [Formula II X=9-Cl 3-F-Ph, reference compound], under setting [1], the EC50 was 11.6 nM.

As to `CC1=CC(C)(C)Nc2ccc3c(c21)/C(=C/c1cc(F)ccc1F)Oc1ccc(F)cc1-3` [Formula II X=9-F 2,5-diF-Ph, reference compound], under setting [1], the EC50 stood at 3 nM.

As to `CC1=CC(C)(C)Nc2ccc3c(c21)/C(=C/c1ccccc1Cl)Oc1ccc(F)cc1-3` [Formula II X=9-F 2-Cl-Ph, reference compound], the EC50 under setting [1] amounted to 12 nM.

Turning to `CC1=CC(C)(C)Nc2ccc3c(c21)/C(=C/c1ccccc1Cl)Oc1c(F)cc(F)cc1-3` [Compound 13, 7,9-difluoro-5(Z)-(2-chlorobenzylidene)-1,2-dihydro-2,2,4-trimethyl-5H-chromeno[3,4-f]quinoline], the EC50 under setting [1] turned out to be 1.92 nM.
